What was measured:
Test in all cases: biochemical
Format in all cases: binding
468 kinases [1] = target: 468 kinases (Homo sapiens, UniProt P42336, E545A); settings: PIK3CA(E545A); read-out: % Inhibition @ 100 nM
468 kinases [2] = target: 468 kinases (Homo sapiens, UniProt P42336, E542K); settings: PIK3CA(E542K); read-out: % Inhibition @ 100 nM
468 kinases [3] = target: 468 kinases (Homo sapiens, UniProt Q09013); settings: DMPK; read-out: % Inhibition @ 100 nM
468 kinases [4] = target: 468 kinases (Homo sapiens, UniProt P08922); settings: ROS1; read-out: % Inhibition @ 100 nM
468 kinases [5] = target: 468 kinases (Homo sapiens, UniProt P49137); settings: MAPKAPK2; read-out: % Inhibition @ 100 nM
468 kinases [6] = target: 468 kinases (Homo sapiens, UniProt Q13237); settings: PRKG2; read-out: % Inhibition @ 100 nM
468 kinases [7] = target: 468 kinases (Homo sapiens, UniProt P15056); settings: BRAF; read-out: % Inhibition @ 100 nM
468 kinases [8] = target: 468 kinases (Homo sapiens, UniProt P08581, Y1235D); settings: MET(Y1235D); read-out: % Inhibition @ 100 nM
468 kinases [9] = target: 468 kinases (Homo sapiens, UniProt O94806); settings: PRKD3; read-out: % Inhibition @ 100 nM
468 kinases [10] = target: 468 kinases (Homo sapiens, UniProt P78368); settings: CSNK1G2; read-out: % Inhibition @ 100 nM
468 kinases [11] = target: 468 kinases (Homo sapiens, UniProt P06239); settings: LCK; read-out: % Inhibition @ 100 nM
468 kinases [12] = target: 468 kinases (Homo sapiens, UniProt Q04759); settings: PRKCQ; read-out: % Inhibition @ 100 nM
468 kinases [13] = target: 468 kinases (Homo sapiens, UniProt O95819); settings: MAP4K4; read-out: % Inhibition @ 100 nM
468 kinases [14] = target: 468 kinases (Homo sapiens, UniProt Q8NEB9); settings: VPS34; read-out: % Inhibition @ 100 nM
468 kinases [15] = target: 468 kinases (Homo sapiens, UniProt O15530); settings: PDPK1; read-out: % Inhibition @ 100 nM
468 kinases [16] = target: 468 kinases (Homo sapiens, UniProt Q14004); settings: read-out: % Inhibition @ 100 nM, CDC2L5
468 kinases [17] = target: 468 kinases (Homo sapiens, UniProt P07949, V804L); settings: RET(V804L); read-out: % Inhibition @ 100 nM
468 kinases [18] = target: 468 kinases (Homo sapiens, UniProt Q05655); settings: PRKCD; read-out: % Inhibition @ 100 nM
468 kinases [19] = target: 468 kinases (Homo sapiens, UniProt P0C264); settings: SgK110; read-out: % Inhibition @ 100 nM
468 kinases [20] = target: 468 kinases (Homo sapiens, UniProt P78356); settings: PIP5K2B; read-out: % Inhibition @ 100 nM
468 kinases [21] = target: 468 kinases (Homo sapiens, UniProt O95747); settings: OSR1; read-out: % Inhibition @ 100 nM
468 kinases [22] = target: 468 kinases (Homo sapiens, UniProt P15735); settings: PHKG2; read-out: % Inhibition @ 100 nM
468 kinases [23] = target: 468 kinases (Homo sapiens, UniProt P07947); settings: YES; read-out: % Inhibition @ 100 nM
468 kinases [24] = target: 468 kinases (Homo sapiens, UniProt Q9H093); settings: SNARK; read-out: % Inhibition @ 100 nM
468 kinases [25] = target: 468 kinases (Homo sapiens, UniProt Q9H2K8); settings: TAOK3; read-out: % Inhibition @ 100 nM
468 kinases [26] = target: 468 kinases (Homo sapiens, UniProt O15146); settings: MUSK; read-out: % Inhibition @ 100 nM
468 kinases [27] = target: 468 kinases (Homo sapiens, UniProt Q92772); settings: CDKL2; read-out: % Inhibition @ 100 nM
468 kinases [28] = target: 468 kinases (Homo sapiens, UniProt P24941); settings: CDK2; read-out: % Inhibition @ 100 nM
468 kinases [29] = target: 468 kinases (Homo sapiens, UniProt Q8NG66); settings: NEK11; read-out: % Inhibition @ 100 nM
468 kinases [30] = target: 468 kinases (Homo sapiens, UniProt O00329); settings: PIK3CD; read-out: % Inhibition @ 100 nM
468 kinases [31] = target: 468 kinases (Homo sapiens, UniProt Q16539); settings: p38-alpha; read-out: % Inhibition @ 100 nM
468 kinases [32] = target: 468 kinases (Homo sapiens, UniProt Q9Y6E0); settings: MST3; read-out: % Inhibition @ 100 nM
468 kinases [33] = target: 468 kinases (Homo sapiens, UniProt Q9BVS4); settings: RIOK2; read-out: % Inhibition @ 100 nM

CCN(CC)CCNC(=O)c1c(C)[nH]c(/C=C2\C(=O)Nc3ccc(CCO)cc32)c1C [Compound No. 10, (Z)—N-(2-(Diethylamino)ethyl)-5-((5-(2-hydroxyethyl)-2-oxoindolin-3-ylidene)methyl)-2,4-dimethyl-1H-pyrrole-3-carboxamide]
inhibition at 0.1 µM (468 kinases [1]): 3%
inhibition at 0.1 µM (468 kinases [2]): 10%
inhibition at 0.1 µM (468 kinases [3]): 0%
inhibition at 0.1 µM (468 kinases [4]): 15%
inhibition at 0.1 µM (468 kinases [5]): 0%
inhibition at 0.1 µM (468 kinases [6]): 0%
inhibition at 0.1 µM (468 kinases [7]): 2%
inhibition at 0.1 µM (468 kinases [8]): 4%
inhibition at 0.1 µM (468 kinases [9]): 0%
inhibition at 0.1 µM (468 kinases [10]): 0%
inhibition at 0.1 µM (468 kinases [11]): 37%
inhibition at 0.1 µM (468 kinases [12]): 0%
inhibition at 0.1 µM (468 kinases [13]): 47%
inhibition at 0.1 µM (468 kinases [14]): 25%
inhibition at 0.1 µM (468 kinases [15]): 11%
inhibition at 0.1 µM (468 kinases [16]): 27%
inhibition at 0.1 µM (468 kinases [17]): 91.1%
inhibition at 0.1 µM (468 kinases [18]): 16%
inhibition at 0.1 µM (468 kinases [19]): 58%
inhibition at 0.1 µM (468 kinases [20]): 91.7%
inhibition at 0.1 µM (468 kinases [21]): 0%
inhibition at 0.1 µM (468 kinases [22]): 94.4%
inhibition at 0.1 µM (468 kinases [23]): 13%
inhibition at 0.1 µM (468 kinases [24]): 80%
inhibition at 0.1 µM (468 kinases [25]): 31%
inhibition at 0.1 µM (468 kinases [26]): 28%
inhibition at 0.1 µM (468 kinases [27]): 10%
inhibition at 0.1 µM (468 kinases [28]): 0%
inhibition at 0.1 µM (468 kinases [29]): 0%
inhibition at 0.1 µM (468 kinases [30]): 0%
inhibition at 0.1 µM (468 kinases [31]): 0%
inhibition at 0.1 µM (468 kinases [32]): 20%
inhibition at 0.1 µM (468 kinases [33]): 0%

CCN(CC)CCNC(=O)c1c(C)[nH]c(/C=C2\C(=O)Nc3ccc(CCC(N)=O)cc32)c1C [Compound No. 16, (Z)-5-((5-(3-Amino-3-oxopropyl)-2-oxoindolin-3-ylidene)methyl)-N-(2-(diethylamino)ethyl)-2,4-dimethyl-1H-pyrrole-3-carboxamide]
inhibition at 0.1 µM (468 kinases [1]): 10%
inhibition at 0.1 µM (468 kinases [2]): 26%
inhibition at 0.1 µM (468 kinases [3]): 11%
inhibition at 0.1 µM (468 kinases [4]): 0%
inhibition at 0.1 µM (468 kinases [5]): 0%
inhibition at 0.1 µM (468 kinases [6]): 36%
inhibition at 0.1 µM (468 kinases [7]): 11%
inhibition at 0.1 µM (468 kinases [8]): 0%
inhibition at 0.1 µM (468 kinases [9]): 53%
inhibition at 0.1 µM (468 kinases [10]): 3%
inhibition at 0.1 µM (468 kinases [11]): 16%
inhibition at 0.1 µM (468 kinases [12]): 0%
inhibition at 0.1 µM (468 kinases [13]): 46%
inhibition at 0.1 µM (468 kinases [14]): 46%
inhibition at 0.1 µM (468 kinases [15]): 3%
inhibition at 0.1 µM (468 kinases [16]): 50%
inhibition at 0.1 µM (468 kinases [17]): 86%
inhibition at 0.1 µM (468 kinases [18]): 9%
inhibition at 0.1 µM (468 kinases [19]): 0%
inhibition at 0.1 µM (468 kinases [20]): 86%
inhibition at 0.1 µM (468 kinases [21]): 47%
inhibition at 0.1 µM (468 kinases [22]): 97.2%
inhibition at 0.1 µM (468 kinases [23]): 24%
inhibition at 0.1 µM (468 kinases [24]): 81%
inhibition at 0.1 µM (468 kinases [25]): 56%
inhibition at 0.1 µM (468 kinases [26]): 15%
inhibition at 0.1 µM (468 kinases [27]): 5%
inhibition at 0.1 µM (468 kinases [28]): 7%
inhibition at 0.1 µM (468 kinases [29]): 36%
inhibition at 0.1 µM (468 kinases [30]): 24%
inhibition at 0.1 µM (468 kinases [31]): 0%
inhibition at 0.1 µM (468 kinases [32]): 19%
inhibition at 0.1 µM (468 kinases [33]): 38%
